Active and inactive are the calls of the source. No cut-off for these calls is given here.
What was measured:
[1] = target: Sigma non-opioid intracellular receptor 1 (Cavia porcellus, UniProt Q60492); test: Displacement of [3H]-(+)-pentazocine from sigma1 receptor in guinea pig brain cortex membranes incubated for 120 mins by scintillation counting method; assay type: cell membranes
[2] = target: T1, Sigma intracellular receptor 2 (Rattus norvegicus, UniProt Q5U3Y7); test: Displacement of [3H]-di-o-tolylguanidine from sigma2 receptor in rat liver membranes incubated for 120 mins by scintillation counting method; assay type: cell membranes, Membrane
T1 sequence (Q5U3Y7 whole entry): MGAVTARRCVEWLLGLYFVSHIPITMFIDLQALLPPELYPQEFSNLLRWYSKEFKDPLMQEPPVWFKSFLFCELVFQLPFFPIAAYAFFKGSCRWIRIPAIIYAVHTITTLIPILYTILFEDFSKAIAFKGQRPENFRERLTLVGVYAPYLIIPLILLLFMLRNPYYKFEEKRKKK

[3] = target: T1, Sigma intracellular receptor 2; test: Displacement of [3H]-DTG from sigma2 receptor in rat liver membranes; assay type: cell membranes, Membrane
[4] = Selectivity ratio of Ki for sigma2 receptor in rat liver membranes to Ki for sigma1 receptor in guinea pig brain cortex membranes; assay type: cell membranes
Mus musculus [5] = test: Antiallodynic activity in CD1 mouse model of capsaicin-induced mechanical allodynia assessed as effect on paw withdrawal latency time at 32 mg/kg, sc administered 5 mins after sigma1 receptor agonist PRE-084 dosing followed by capsaicin addition and measured after 30 mins post compound dose; assay type: functional, organism-based
[6] = Displacement of [3H]-(+)-MK-801 from NMDA PCP binding site in pig brain cortex membrane incubated for 120 mins by scintillation counting method; assay type: cell membranes, Sus scrofa
in vitro = settings: mouse, liver microsomes
Description: Metabolic stability in mouse liver microsomes assessed as compound remaining at 25 uM after 1 hr in presence of NADPH by LC-MS analysis

Mu-type opioid receptor = Mu-type opioid receptor (Cavia porcellus, UniProt P97266); test: Displacement of [3H]DAMGO from MOR in guinea pig brain membranes incubated for 120 mins by scintillation counting method; assay type: cell membranes, Membrane
[7] = Stability in pH 7.4 phosphate buffer assessed as parent compound remaining after 24 hrs by HPLC; assay type: physicochemical; settings: pH 7.4, 24 h
[8] = target: Delta-type opioid receptor (Rattus norvegicus, UniProt P33533); test: Displacement of [3H]DPDPE from DOR in rat brain membranes incubated for 120 mins by scintillation counting method; assay type: cell membranes, Membrane
Mus musculus [9] = test: Antiallodynic activity in CD1 mouse model of capsaicin-induced mechanical allodynia assessed as effect on paw withdrawal latency time at 2 to 64 mg/kg, sc administered 30 mins before capsaicin addition and measured at 30 secs intervals; assay type: functional, organism-based
[10] = target: Glutamate receptor ionotropic, NMDA 2B (Homo sapiens, UniProt Q13224); test: Displacement of [3H]ifenprodil from GluN2B (unknown origin) expressed in mouse L(tk-) cell membranes incubated for 120 mins by scintillation counting method
Mus musculus [11] = test: Antiallodynic activity in CD1 mouse model of capsaicin-induced mechanical allodynia assessed as effect on paw withdrawal latency time at 4 to 64 mg/kg, sc administered 30 mins before capsaicin addition and measured at 30 secs intervals; assay type: functional, organism-based
Mus musculus [12] = test: Antiallodynic activity in CD1 mouse model of capsaicin-induced mechanical allodynia assessed as effect on paw withdrawal latency time at 4 to 32 mg/kg, sc administered 5 mins after sigma1 receptor agonist PRE-084 dosing followed by capsaicin addition and measured after 30 mins post compound dose; assay type: functional, organism-based
[13] = Stability in pH 2 aqueous HCl solution assessed as parent compound remaining after 24 hrs by HPLC; assay type: physicochemical; settings: buffer, pH 2, 24 h
[14] = target: Sodium-dependent noradrenaline transporter (Homo sapiens) (UniProt P23975); test: Inhibition of NET (unknown origin) at 1 uM relative to control
[15] = target: 5-hydroxytryptamine receptor 2B (Homo sapiens) (UniProt P41595); test: Inhibition of 5-HT2B receptor (unknown origin) at 1 uM relative to control
[16] = target: Voltage-gated inwardly rectifying potassium channel KCNH2 (Homo sapiens, UniProt Q12809); test: Inhibition of human ERG expressed in CHO cells by automated patch clamp assay; assay type: cell-based
[17] = target: T2, Alpha-1A adrenergic receptor (Homo sapiens) (UniProt P35348); test: Inhibition of alpha-1A adrenergic receptor (unknown origin) at 1 uM relative to control
T2 sequence (whole entry): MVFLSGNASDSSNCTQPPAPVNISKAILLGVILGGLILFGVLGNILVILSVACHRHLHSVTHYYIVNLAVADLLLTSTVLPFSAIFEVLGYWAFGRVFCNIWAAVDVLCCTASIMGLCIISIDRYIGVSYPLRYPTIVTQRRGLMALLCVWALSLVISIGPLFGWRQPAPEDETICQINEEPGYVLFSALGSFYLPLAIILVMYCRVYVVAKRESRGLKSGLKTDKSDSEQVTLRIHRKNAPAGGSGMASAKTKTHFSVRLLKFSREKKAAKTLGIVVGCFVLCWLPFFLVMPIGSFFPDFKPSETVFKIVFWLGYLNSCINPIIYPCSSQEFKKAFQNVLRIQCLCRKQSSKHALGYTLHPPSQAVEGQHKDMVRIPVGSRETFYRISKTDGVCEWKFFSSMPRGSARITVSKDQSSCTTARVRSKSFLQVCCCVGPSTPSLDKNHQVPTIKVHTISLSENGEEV

[18] = target: Sodium-dependent serotonin transporter (Homo sapiens) (UniProt P31645); test: Inhibition of SERT (unknown origin) at 1 uM relative to control
[19] = target: Histamine H1 receptor (Homo sapiens) (UniProt P35367); test: Inhibition of histamine H1 receptor (unknown origin) at 1 uM relative to control
[20] = target: Sodium-dependent dopamine transporter (Homo sapiens) (UniProt Q01959); test: Inhibition of DAT (unknown origin) at 1 uM relative to control
[21] = target: T3, 5-hydroxytryptamine receptor 1A (Homo sapiens) (UniProt P08908); test: Inhibition of 5-HT1A receptor (unknown origin) at 1 uM relative to control
T3 sequence (whole entry): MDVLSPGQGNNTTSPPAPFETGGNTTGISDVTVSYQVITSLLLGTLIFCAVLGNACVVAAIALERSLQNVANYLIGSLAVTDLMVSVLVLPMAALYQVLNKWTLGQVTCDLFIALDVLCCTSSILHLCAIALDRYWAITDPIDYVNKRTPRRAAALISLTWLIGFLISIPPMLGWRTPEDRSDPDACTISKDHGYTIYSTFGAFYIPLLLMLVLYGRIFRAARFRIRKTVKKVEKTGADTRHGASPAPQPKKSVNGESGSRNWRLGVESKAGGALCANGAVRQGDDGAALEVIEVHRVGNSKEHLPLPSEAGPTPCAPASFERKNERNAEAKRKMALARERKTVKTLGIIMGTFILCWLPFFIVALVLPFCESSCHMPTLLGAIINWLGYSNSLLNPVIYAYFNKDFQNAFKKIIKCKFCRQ

[22] = target: Kappa-type opioid receptor (Cavia porcellus, UniProt P41144); test: Displacement of [3H]U-69,593 from KOR in guinea pig brain membranes incubated for 120 mins by scintillation counting method; assay type: cell membranes, Membrane

Chain of Sigma non-opioid intracellular receptor 1 (Q60492 whole entry): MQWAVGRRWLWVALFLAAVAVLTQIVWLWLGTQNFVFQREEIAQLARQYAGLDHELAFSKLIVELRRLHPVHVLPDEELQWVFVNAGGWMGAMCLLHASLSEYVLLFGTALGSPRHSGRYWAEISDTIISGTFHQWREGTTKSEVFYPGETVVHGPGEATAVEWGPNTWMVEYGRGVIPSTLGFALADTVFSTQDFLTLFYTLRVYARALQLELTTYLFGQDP
Chain of Glutamate receptor ionotropic, NMDA 2B (Q13224 whole entry): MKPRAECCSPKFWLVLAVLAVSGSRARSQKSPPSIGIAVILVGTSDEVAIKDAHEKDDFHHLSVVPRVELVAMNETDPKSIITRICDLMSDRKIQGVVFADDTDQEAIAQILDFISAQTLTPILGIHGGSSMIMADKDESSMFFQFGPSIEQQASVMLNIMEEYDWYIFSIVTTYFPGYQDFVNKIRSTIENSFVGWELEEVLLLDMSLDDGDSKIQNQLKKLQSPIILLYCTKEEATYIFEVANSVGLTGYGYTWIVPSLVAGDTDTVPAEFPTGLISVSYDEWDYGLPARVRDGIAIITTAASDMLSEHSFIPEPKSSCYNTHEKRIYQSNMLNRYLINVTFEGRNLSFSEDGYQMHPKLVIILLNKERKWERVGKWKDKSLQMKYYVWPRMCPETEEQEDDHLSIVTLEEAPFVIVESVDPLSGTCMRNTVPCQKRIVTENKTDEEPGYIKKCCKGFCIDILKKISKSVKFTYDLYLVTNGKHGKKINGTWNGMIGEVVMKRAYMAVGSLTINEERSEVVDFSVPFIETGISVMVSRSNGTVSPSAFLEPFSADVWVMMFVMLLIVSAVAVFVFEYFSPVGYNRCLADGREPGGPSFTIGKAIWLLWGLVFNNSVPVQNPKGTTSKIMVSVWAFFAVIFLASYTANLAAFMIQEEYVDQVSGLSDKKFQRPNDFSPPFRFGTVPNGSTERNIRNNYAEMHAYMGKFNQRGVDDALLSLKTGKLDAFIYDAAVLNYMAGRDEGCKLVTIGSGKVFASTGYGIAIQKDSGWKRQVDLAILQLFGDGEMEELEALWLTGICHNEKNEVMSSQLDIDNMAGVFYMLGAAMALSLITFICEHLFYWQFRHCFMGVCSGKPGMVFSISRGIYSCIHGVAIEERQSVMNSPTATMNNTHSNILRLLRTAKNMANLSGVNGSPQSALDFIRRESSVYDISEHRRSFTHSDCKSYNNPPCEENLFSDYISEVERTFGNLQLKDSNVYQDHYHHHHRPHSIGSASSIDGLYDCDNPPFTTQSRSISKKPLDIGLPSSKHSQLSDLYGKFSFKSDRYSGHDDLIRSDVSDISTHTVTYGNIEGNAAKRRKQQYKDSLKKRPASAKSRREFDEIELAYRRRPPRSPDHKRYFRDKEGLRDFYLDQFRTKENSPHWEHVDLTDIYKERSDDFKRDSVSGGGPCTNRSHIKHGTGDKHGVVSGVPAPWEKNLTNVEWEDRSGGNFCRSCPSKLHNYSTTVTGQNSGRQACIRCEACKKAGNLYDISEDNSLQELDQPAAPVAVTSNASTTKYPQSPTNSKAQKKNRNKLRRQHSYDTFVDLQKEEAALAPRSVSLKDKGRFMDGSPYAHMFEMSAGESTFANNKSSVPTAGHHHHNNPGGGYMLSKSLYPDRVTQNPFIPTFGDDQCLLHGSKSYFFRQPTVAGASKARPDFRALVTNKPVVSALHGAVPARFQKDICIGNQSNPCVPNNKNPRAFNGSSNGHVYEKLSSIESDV
Chain of Histamine H1 receptor (Homo sapiens) (P35367 whole entry): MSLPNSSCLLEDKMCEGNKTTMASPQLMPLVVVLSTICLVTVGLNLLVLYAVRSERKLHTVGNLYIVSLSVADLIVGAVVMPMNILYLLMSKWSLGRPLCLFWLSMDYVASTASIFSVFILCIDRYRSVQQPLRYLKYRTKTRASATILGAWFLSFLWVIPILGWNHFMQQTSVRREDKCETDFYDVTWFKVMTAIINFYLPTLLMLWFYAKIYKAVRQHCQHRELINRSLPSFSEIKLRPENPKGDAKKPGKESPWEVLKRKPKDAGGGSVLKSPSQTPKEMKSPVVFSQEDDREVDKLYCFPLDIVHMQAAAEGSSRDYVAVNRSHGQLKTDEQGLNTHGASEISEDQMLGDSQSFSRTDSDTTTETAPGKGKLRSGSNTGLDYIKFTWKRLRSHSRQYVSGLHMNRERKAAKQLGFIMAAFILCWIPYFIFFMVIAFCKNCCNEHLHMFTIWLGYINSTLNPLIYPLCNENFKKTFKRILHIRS
Chain of Mu-type opioid receptor (P97266 whole entry): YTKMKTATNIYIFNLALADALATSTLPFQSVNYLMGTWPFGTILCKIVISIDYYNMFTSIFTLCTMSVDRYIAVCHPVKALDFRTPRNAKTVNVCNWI
Chain of 5-hydroxytryptamine receptor 2B (Homo sapiens) (P41595 whole entry): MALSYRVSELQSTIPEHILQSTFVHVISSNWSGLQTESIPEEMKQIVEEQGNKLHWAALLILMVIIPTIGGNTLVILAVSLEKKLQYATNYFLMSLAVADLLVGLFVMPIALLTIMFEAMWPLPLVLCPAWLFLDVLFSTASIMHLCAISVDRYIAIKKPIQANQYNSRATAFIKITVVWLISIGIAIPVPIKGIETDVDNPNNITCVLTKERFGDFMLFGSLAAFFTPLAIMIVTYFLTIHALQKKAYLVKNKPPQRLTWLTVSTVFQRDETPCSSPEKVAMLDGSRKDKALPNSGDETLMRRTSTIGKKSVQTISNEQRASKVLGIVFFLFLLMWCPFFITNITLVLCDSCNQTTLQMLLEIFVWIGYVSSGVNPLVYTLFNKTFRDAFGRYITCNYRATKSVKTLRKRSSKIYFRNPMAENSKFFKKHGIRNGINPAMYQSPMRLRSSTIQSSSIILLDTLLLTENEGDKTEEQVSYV
Chain of Sodium-dependent dopamine transporter (Homo sapiens) (Q01959 whole entry): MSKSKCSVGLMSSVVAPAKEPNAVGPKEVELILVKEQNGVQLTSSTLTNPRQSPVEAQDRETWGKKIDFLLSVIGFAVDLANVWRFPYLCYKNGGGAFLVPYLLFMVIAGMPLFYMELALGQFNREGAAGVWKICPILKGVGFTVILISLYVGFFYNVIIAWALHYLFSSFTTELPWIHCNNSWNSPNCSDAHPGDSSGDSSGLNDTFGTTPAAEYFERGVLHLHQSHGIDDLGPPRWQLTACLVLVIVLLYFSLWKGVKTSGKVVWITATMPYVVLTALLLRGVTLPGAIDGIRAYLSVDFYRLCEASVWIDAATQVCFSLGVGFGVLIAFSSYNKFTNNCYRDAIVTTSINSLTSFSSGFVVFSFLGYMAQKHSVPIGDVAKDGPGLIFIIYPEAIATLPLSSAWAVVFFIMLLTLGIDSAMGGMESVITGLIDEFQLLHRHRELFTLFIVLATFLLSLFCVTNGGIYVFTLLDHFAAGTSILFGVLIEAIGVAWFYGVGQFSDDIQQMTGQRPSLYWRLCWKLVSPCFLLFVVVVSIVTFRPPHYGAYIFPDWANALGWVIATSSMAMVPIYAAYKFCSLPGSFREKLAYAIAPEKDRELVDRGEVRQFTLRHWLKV
Chain of Sodium-dependent noradrenaline transporter (Homo sapiens) (P23975 whole entry): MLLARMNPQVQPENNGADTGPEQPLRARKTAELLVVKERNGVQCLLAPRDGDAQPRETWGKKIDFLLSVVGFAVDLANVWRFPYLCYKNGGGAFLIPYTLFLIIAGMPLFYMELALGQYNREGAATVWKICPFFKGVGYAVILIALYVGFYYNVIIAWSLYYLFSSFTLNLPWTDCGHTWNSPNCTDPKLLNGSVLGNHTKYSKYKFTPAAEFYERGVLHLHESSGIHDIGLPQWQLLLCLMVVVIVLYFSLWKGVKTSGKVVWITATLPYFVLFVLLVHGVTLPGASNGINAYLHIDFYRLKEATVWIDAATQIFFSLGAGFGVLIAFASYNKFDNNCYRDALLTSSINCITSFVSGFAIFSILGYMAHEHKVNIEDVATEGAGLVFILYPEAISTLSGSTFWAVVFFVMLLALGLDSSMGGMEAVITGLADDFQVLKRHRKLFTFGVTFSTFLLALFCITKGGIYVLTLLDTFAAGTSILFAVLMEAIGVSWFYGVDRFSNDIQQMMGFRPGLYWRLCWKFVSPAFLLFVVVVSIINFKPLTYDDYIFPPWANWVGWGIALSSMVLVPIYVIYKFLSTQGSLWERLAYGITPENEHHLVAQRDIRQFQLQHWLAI
Chain of Sodium-dependent serotonin transporter (Homo sapiens) (P31645 whole entry, looked up): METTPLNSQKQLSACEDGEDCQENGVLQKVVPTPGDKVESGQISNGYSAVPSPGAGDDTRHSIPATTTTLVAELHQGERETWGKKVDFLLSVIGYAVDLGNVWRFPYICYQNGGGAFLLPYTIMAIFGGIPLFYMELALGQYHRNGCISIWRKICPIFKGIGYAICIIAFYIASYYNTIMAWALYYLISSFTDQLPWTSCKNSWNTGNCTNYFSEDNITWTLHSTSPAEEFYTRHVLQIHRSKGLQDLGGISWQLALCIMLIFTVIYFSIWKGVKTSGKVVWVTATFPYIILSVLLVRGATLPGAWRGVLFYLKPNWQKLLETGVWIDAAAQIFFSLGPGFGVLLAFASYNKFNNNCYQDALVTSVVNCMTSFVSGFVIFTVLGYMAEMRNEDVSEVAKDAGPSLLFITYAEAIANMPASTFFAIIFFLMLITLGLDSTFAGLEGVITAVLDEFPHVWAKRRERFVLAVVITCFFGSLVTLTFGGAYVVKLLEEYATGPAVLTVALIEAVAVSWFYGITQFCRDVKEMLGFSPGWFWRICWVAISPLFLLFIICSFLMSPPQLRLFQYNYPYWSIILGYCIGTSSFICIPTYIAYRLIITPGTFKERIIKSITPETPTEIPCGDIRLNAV
Chain of Delta-type opioid receptor (P33533 whole entry): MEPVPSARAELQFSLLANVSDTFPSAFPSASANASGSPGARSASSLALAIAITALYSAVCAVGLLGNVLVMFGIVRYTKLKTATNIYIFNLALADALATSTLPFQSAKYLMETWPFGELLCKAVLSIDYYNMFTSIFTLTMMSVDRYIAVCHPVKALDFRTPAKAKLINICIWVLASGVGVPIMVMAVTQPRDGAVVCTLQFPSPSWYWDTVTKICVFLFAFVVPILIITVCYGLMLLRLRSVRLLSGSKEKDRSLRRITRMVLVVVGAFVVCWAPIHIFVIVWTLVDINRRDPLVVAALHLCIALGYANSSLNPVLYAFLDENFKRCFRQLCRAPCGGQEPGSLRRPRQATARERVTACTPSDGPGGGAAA

| Structure (SMILES) | Ki [1] | Ki [2] | other results |
| --- | --- | --- | --- |
| O[C@@H]1Cc2ccccc2C2(CCC(N3CCN(C4CCCCC4)CC3)CC2)O1 (some centres undefined) | 77 nM |  |  |
| CCOC(=O)C[C@H]1Cc2ccccc2C2(CCC(N3CCc4cc(OC)c(OC)cc4C3)CC2)O1 (some centres undefined) |  | 343 nM |  |
| CCOC(=O)C[C@@H]1Cc2ccccc2C2(CCC(N3CCN(C4CCCCC4)CC3)CC2)O1 (some centres undefined) |  | 355 nM |  |
| CO[C@@H]1Cc2ccccc2C2(CCC(NCc3ccccc3)CC2)O1 (some centres undefined) | 538 nM |  |  |
| Cc1ccc(CNC2CCC3(CC2)O[C@H](CCO)Cc2ccccc23)c(C)c1 (some centres undefined) |  | 381 nM |  |
| COc1cc2c(cc1OC)CN(C1CCC3(CC1)O[C@H](CCF)Cc1ccccc13)CC2 (some centres undefined) | 807 nM |  |  |
| COc1cc2c(cc1OC)CN(CCCCNC(=O)c1cc(Br)cc(OC)c1OC)CC2 |  | 8.2 nM | Ki [3]: 8.2 nM |
| CO[C@H]1Cc2ccccc2C2(CCC(NCc3ccccc3)CC2)O1 (some centres undefined) | 158 nM |  |  |
| CO[C@H]1Cc2ccccc2C2(CCC(N3CCN(C4CCCCC4)CC3)CC2)O1 (some centres undefined) | 4.4 nM | 213 nM | Ratio Ki [4]: 50 |
| FCC[C@H]1Cc2ccccc2C2(CCC(NC3CCc4ccccc4CC3)CC2)O1 (some centres undefined) | 198 nM | 527 nM |  |
| OCC[C@@H]1Cc2ccccc2C2(CCC(N3CCN(C4CCCCC4)CC3)CC2)O1 (some centres undefined) | 61 nM | 172 nM |  |
| Cc1ccc(CNC2CCC3(CC2)O[C@@H](O)Cc2ccccc23)c(C)c1 (some centres undefined) |  | 66 nM |  |
| FCC[C@H]1Cc2ccccc2C2(CCC(N3CCN(C4CCCCC4)CC3)CC2)O1 (some centres undefined) | 19 nM | 432 nM | Activity (Mus musculus [5]): inactive; Ki [6]: > 1000 nM; remaining at 1 h, 25 µM (in vitro): 69.5%; Ki (Mu-type opioid receptor): 434 nM; Stability [7]: Stable; Ki [8]: 647 nM; Activity (Mus musculus [9]): Active; Ki [10]: 31 nM; Activity (Mus musculus [11]): Active; Activity (Mus musculus [12]): inactive; Stability [13]: Stable |
| CCOC(=O)C[C@H]1Cc2ccccc2C2(CCC(N3CCN(C4CCCCC4)CC3)CC2)O1 (some centres undefined) |  | 51 nM | Ki [6]: > 1000 nM; inhibition [14]: < 50%; inhibition [15]: < 50%; Ki (Mu-type opioid receptor): 458 nM; Stability [7]: Stable; IC50 [16]: 1750 nM; inhibition [17]: 78%; inhibition [18]: < 50%; inhibition [19]: 98%; inhibition [20]: < 50%; inhibition [21]: 68%; Ki [10]: 54 nM; Stability [13]: Stable |
| Cc1ccc(CNC2CCC3(CC2)O[C@H](O)Cc2ccccc23)c(C)c1 (some centres undefined) | 349 nM | 181 nM |  |
| Cc1ccc(CNC2CCC3(CC2)O[C@@H](CCO)Cc2ccccc23)c(C)c1 (some centres undefined) | 548 nM | 179 nM |  |
| CCOC(=O)C[C@H]1Cc2ccccc2C2(CCC(NCc3ccc(C)cc3C)CC2)O1 (some centres undefined) | 547 nM | 159 nM |  |

| Structure (SMILES) | Ki [1] | Ki [2] | other results |
| --- | --- | --- | --- |
| CO[C@@H]1Cc2ccccc2C2(CCC(NCc3ccc(C)cc3C)CC2)O1 (some centres undefined) | 736 nM | 7.6 nM |  |
| CO[C@H]1Cc2ccccc2C2(CCC(NCCCc3cn(-c4ccc(F)cc4)c4ccccc34)CC2)O1 (some centres undefined) | 635 nM |  |  |
| CCOC(=O)C[C@@H]1Cc2ccccc2C2(CCC(NCc3ccc(C)cc3C)CC2)O1 (some centres undefined) |  | 231 nM |  |
| FCC[C@@H]1Cc2ccccc2C2(CCC(NC3CCc4ccccc4CC3)CC2)O1 (some centres undefined) | 667 nM | 305 nM |  |
| O[C@H]1Cc2ccccc2C2(CCC(N3CCN(C4CCCCC4)CC3)CC2)O1 (some centres undefined) | 47 nM | 27 nM | Ki [6]: > 1000 nM; inhibition [14]: < 50%; inhibition [15]: < 50%; Stability [7]: Stable; IC50 [16]: 3210 nM; inhibition [17]: < 50%; inhibition [18]: < 50%; inhibition [19]: 76%; inhibition [20]: < 50%; Ki [22]: 781 nM; inhibition [21]: 55%; Ki [10]: 34 nM; Stability [13]: Stable |
| CO[C@H]1Cc2ccccc2C2(CCC(NC3CCc4ccccc4CC3)CC2)O1 (some centres undefined) | 265 nM | 77 nM |  |
| CO[C@@H]1Cc2ccccc2C2(CCC(NC3CCc4ccccc4CC3)CC2)O1 (some centres undefined) |  | 49 nM |  |
| Cc1ccc(CNC2CCC3(CC2)O[C@@H](CCF)Cc2ccccc23)c(C)c1 (some centres undefined) | 966 nM |  |  |
| COc1cc2c(cc1OC)CN(C1CCC3(CC1)O[C@H](OC)Cc1ccccc13)CC2 (some centres undefined) | 639 nM | 58 nM |  |
| OCC[C@H]1Cc2ccccc2C2(CCC(N3CCN(C4CCCCC4)CC3)CC2)O1 (some centres undefined) | 28 nM |  |  |
| CO[C@@H]1Cc2ccccc2C2(CCC(N3CCN(C4CCCCC4)CC3)CC2)O1 (some centres undefined) | 6.3 nM | 62 nM | Ratio Ki [4]: 10 |
| COc1cc2c(cc1OC)CN(C1CCC3(CC1)O[C@H](O)Cc1ccccc13)CC2 (some centres undefined) | 583 nM | 99 nM |  |
| CN1CCN(CCc2ccc(Cl)c(Cl)c2)CC1 |  |  | Activity (Mus musculus [9]): Active; Activity (Mus musculus [11]): Active |
| COc1cc2c(cc1OC)CN(C1CCC3(CC1)O[C@@H](OC)Cc1ccccc13)CC2 (some centres undefined) |  | 105 nM |  |
| COc1cccc2c1CCCC2CCCN1CCN(C2CCCCC2)CC1 (centres undefined) |  | 0.68 nM | Ki [3]: 0.68 nM |
| CO[C@H]1Cc2ccccc2C2(CCC(NCc3ccc(C)cc3C)CC2)O1 (some centres undefined) |  | 54 nM |  |
